Experimental data from publication PMC10012588, “Engineering Streptomyces albulus to enhance ε-poly-L-lysine production by introducing a polyphosphate kinase-mediated ATP regeneration system” (Microbial Cell Factories, 2023).

Assays:
Assay type in all cases: biochemical
[1] = molecular target: T1, PPK2C^pa (Pseudomonas aeruginosa, UniProt Q9HYF1); assay: ATP formation from ADP and polyPn; settings: 5 uM ADP, 5 uM polyP (polyP6 best), 20 mM MgSO4, 50 mM Tris-HCl pH 8.0, 30 °C, 2 h
T1 construct: gene PA3455
T1 sequence (Q9HYF1 1-496): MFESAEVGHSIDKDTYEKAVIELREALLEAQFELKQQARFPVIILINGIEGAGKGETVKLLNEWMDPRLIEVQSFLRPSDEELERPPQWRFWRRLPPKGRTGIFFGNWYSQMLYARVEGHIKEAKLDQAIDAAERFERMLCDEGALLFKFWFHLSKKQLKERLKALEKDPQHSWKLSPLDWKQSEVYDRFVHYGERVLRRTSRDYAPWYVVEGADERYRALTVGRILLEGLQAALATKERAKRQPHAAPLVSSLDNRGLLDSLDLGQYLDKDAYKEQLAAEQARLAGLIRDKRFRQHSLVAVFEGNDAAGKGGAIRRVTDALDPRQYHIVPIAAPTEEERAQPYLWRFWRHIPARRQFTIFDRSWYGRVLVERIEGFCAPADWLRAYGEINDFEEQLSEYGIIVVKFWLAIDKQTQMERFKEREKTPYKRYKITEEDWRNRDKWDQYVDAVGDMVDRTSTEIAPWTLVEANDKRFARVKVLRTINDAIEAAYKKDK

[2] = molecular target: PPK2B^cg (Corynebacterium glutamicum, UniProt Q8NM65); assay: ATP formation from ADP and polyPn; settings: 5 uM ADP, 5 uM polyP (polyP6 best), 20 mM MgSO4, 50 mM Tris-HCl pH 8.0, 30 °C, 2 h
[3] = molecular target: T2, PPK1 (Streptomyces noursei, UniProt A0A2N8P4S7); assay: ATP formation from ADP and polyPn; settings: 5 uM ADP, 5 uM polyP (polyP6 best), 20 mM MgSO4, 50 mM Tris-HCl pH 8.0, 30 °C, 2 h
T2 construct: gene ppk; gene amplified from the WG608 genome

[4] = molecular target: T2, PPK1; assay: change of ATP concentration, reverse reaction; settings: 0-10 uM ATP, 5 uM ADP, 5 uM polyP6, 20 mM MgSO4, 50 mM Tris-HCl pH 8.0, 30 °C, 2 h

SMILES | ATP formation from ADP and polyPn [1] | ATP formation from ADP and polyPn [2] | ATP formation from ADP and polyPn [3] | change of ATP concentration, reverse reaction [4]
Nc1ncnc2c1ncn2[C@@H]1O[C@H](COP(=O)(O)OP(=O)(O)O)[C@@H](O)[C@H]1O [ADP] | The activities of the three PPKs were compared in vitro using ADP, and different polyPs | PPK2B^cg exhibited the highest ATP production ability | The activities of the three PPKs were compared in vitro using ADP, and different polyPs | –
Nc1ncnc2c1ncn2[C@@H]1O[C@H](COP(=O)(O)OP(=O)(O)OP(=O)(O)O)[C@@H](O)[C@H]1O [ATP] | – | – | – | PPK1 catalyzes polyP6 polymerization and ATP is degraded into ADP
